Laboratory results as given in EP2966079B1, “PYRIDOPYRIMIDINE OR PYRIMIDOPYRIMIDINE COMPOUND, PREPARATION METHOD, PHARMACEUTICAL COMPOSITION AND USE THEREOF” (Shanghai Institute of Materia Medica, Chinese Academy of …, priority 2013, dated 2014).

How the values were obtained:
[1] = system: human brain glioma U87MG; assay: Cell proliferation assay (MTS method), U87MG; assay type: cell-based; conditions: U-87 MG, 72 h, U87MG cells, cultured with compound for 3 days
Experimental: (§1) Cell proliferation assay was based on two types of cell lines, i.e., human brain glioma U87MG and human prostate cancer LNCap, both of which were from ATCC. U87MG and LNCap contain PTEN gene deletion, and belongs to mTOR signal-dependent tumor cells. Cell culture media and related reagents were from GIBCO. U87MG cells were cultured in a MEM complete medium (containing 10% fetal bovine serum, 100 U/mL penicillin and 100 µg/mL streptomycin). […] Cells/compound was cultured for 3 days, and MTS method was used to test cell proliferation. MTS and PMS were purchased from Sigma company, a stock solution of MTS/PMS (20:1) was added into the test cells with 20 µL/well. After a suitable time of incubation, the proliferation assay results was recorded on a 96 well plate microplate reader. Relative cell viability% = (A490valueofadministeredgroup−lightvalueoftheblankgroup)/(lightvalueofDMSOgroup−lightvalueofblankgroup) × 100%. [formula]
(§2) The experimental data were processed with Microsoft Office Excel and Graphpad PRISM 5 to calculate IC50.

[2] = system: human prostate cancer LNCap; assay: Cell proliferation assay (MTS method), LNCap; assay type: cell-based; conditions: 72 h, LNCap cells, cultured with compound for 3 days
Experimental: as §1, §2

[3] = molecular target: mTOR (Homo sapiens, UniProt P42345); assay: mTOR Kinase test (LANCE Ultra, ULight-4EBP1 substrate); assay type: biochemical; conditions: 1.7 nM mTOR, 50 nM ULight-4EBP1, 100 µM ATP, 1.5 hours reaction
Chain of mTOR (P42345 1362-2549): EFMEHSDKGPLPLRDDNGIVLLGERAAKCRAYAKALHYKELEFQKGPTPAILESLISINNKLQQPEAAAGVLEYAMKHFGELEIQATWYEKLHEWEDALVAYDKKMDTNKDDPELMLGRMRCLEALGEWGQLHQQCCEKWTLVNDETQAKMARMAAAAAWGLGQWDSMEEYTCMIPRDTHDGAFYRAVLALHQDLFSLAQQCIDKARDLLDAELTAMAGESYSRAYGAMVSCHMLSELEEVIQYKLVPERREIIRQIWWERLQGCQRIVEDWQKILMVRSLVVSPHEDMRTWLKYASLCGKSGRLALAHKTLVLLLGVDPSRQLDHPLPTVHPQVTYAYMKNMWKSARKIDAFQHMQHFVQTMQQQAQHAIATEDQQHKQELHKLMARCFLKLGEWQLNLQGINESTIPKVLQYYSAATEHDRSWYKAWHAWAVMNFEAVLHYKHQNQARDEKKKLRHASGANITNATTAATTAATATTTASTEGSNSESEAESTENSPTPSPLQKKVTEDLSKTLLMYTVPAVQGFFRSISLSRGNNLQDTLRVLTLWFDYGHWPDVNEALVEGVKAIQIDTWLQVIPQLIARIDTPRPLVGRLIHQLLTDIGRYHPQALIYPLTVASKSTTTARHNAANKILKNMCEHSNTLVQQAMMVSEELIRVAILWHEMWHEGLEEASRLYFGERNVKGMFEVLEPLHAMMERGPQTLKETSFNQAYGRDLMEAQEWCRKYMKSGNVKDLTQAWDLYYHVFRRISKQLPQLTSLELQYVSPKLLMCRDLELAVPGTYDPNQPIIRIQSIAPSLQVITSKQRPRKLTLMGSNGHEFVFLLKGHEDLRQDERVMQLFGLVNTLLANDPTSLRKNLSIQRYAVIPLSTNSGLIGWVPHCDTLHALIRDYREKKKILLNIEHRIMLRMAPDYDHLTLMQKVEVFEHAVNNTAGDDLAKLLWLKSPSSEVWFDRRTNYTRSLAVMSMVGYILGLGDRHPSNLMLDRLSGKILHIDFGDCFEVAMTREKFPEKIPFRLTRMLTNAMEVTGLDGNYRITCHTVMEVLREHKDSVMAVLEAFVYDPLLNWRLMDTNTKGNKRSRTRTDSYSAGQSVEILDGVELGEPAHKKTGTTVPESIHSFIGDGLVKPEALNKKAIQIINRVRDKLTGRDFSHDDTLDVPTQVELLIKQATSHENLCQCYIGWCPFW

COc1ccc(-c2cc3nc(N4C[C@@H](C)O[C@@H](C)C4)nc(N4C[C@@H](C)O[C@@H](C)C4)c3cn2)cc1CO [Compound 17, (5-(2,4-di((2S,6R)-2,6-dimethyl)pyrido[4,3-d]pyrimidin-7-yl)-2-methoxyphenyl)methanol]
IC50 [1]: > 60 µM | IC50 [2]: 21.4 µM | IC50 [3]: > 20 µM
